# Legend:
# E. coli DNA gyrase = target: T1, E. coli DNA gyrase (Escherichia coli, UniProt P0AES4+P0AES6); assay: DNA gyrase inhibition (supercoiling kit), Exp. Ex. 2-2; type: biochemical
# T1 construct: purchased John Innes Enterprises #K0001
# Outline: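 IC50 derived from gel electrophoresis separating supercoiled from relaxed DNA. Reactions ran 30 minutes at 37° C with 1 U gyrase, […] relaxed pBR322, 1 mM ATP and 4 mM MgCl2 in Tris-HCl buffer (pH 7.5), then stopped with EDTA-containing solution.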
# [1] = system: Vancomycin intermediate-resistant Staphylococcus aureus Mu50; assay: In vitro infectivity assay (MIC), Exp. Ex. 2-1; type: cell-based; conditions: Staphylococcus aureus, VISA; Gram-positive; microdilution, MIC after 24 h; read-out: MIC VISA Mu50
# Outline: (§1)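 CLSI broth dilution; Mueller-Hinton + 0.85% NaCl; inoculum ~10^5 CUF/[…]; 35° C, 24 h; MIC read, n=3.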
# [2] = system: Vancomycin-resistant enterococci NCTC 12201; assay: In vitro infectivity assay (MIC), Exp. Ex. 2-1; type: cell-based; conditions: Enterococcus, NCTC 12201 / VRE; Gram-positive; microdilution, MIC after 24 h; read-out: MIC VRE NCTC 12201
# Outline: as §1
# [3] = system: Vancomycin-resistant enterococci FN-1; assay: In vitro infectivity assay (MIC), Exp. Ex. 2-1; type: cell-based; conditions: Enterococcus, VRE; Gram-positive; microdilution, MIC after 24 h; read-out: MIC VRE FN-1
# Outline: as §1
# Escherichia coli K-12 = assay: Antibacterial activity (MIC) against Gram-negative strains, microdilution; type: cell-based; conditions: K12, MIC after 24 h, read-out: MIC (Gram-nagative) K-12
# Outline: (§2)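 CLSI broth microdilution in Mueller-Hinton broth with 0.85% NaCl, inoculum about 10^5 […]. Incubated 35° C for 24 hours; MIC taken as the minimum inhibitory concentration, measured three times.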
# [4] = system: Pseodomonas aeruginosa PAOI; assay: as above; type: cell-based; conditions: MIC after 24 h, read-out: MIC (Gram-nagative) PAO1
# Outline: as §2
# [5] = target: T2, Escherichia coli Topoisomerase IV (Escherichia coli, UniProt P0AFI2+P20083); assay: Topoisomerase IV inhibition (decatenation kit), Exp. Ex. 2-3; type: biochemical; conditions: decatenation of kDNA, 37° C., 30 minutes; read-out: IC50 (E. coli topoisomerase IV inhibitions)
# T2 construct: purchased John Innes Enterprises
# T2 sequence (P20083 whole entry): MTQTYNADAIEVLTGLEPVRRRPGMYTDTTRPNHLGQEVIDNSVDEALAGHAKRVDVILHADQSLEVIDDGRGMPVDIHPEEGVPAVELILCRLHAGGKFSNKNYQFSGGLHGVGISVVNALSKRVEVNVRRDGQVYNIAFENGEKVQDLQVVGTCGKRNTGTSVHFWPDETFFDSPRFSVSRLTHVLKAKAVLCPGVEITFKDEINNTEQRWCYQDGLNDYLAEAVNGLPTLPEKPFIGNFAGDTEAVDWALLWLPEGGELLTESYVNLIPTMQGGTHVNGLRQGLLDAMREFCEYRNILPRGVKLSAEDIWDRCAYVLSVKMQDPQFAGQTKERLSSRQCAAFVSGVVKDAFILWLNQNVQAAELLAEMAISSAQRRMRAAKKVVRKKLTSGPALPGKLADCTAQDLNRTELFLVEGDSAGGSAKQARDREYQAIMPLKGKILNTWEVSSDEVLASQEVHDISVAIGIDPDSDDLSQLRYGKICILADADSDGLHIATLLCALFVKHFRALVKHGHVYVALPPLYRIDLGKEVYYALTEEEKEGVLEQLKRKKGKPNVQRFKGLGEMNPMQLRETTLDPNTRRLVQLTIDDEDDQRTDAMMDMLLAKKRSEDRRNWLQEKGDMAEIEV
# T2 sequence (P0AFI2 whole entry): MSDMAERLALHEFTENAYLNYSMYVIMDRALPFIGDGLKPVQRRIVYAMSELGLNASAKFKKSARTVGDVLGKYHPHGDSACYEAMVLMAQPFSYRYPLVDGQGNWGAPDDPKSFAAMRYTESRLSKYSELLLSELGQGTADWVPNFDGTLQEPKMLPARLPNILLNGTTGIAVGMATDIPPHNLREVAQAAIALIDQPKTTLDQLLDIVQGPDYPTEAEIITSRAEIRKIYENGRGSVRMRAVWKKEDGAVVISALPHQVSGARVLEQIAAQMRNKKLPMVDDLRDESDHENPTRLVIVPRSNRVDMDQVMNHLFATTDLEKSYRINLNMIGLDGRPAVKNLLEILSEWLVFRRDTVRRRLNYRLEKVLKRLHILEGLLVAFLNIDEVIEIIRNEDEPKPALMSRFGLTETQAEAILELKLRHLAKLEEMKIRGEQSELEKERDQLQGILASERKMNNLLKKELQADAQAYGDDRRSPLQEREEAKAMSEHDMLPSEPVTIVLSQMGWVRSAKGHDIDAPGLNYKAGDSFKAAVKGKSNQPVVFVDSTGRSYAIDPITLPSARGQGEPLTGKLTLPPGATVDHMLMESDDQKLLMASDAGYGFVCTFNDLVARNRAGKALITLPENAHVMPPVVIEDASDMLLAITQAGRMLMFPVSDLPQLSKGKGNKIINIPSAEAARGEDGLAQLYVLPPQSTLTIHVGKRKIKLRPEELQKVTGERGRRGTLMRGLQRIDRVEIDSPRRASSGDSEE
# Outline: (§3)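 Decatenation of 200 ng kinetoplast DNA by 1 unit enzyme, 30 min at 37 °C. S. aureus: 50 mM Tris-HCl pH 7.5, 350 mM potassium glutamate, 1.5 mM ATP; E. coli: 50 mM HEPES-KOH pH 7.6, 100 mM potassium glutamate, 1 mM ATP. Products resolved on 1.0% agarose in TAE.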
# [6] = target: T3, Staphylococcus aureus Topoisomerase IV (Staphylococcus aureus, UniProt P0C1S7+P0C1U9); assay: as above; type: biochemical
# T3 construct: purchased John Innes Enterprises
# T3 sequence (P0C1U9 whole entry): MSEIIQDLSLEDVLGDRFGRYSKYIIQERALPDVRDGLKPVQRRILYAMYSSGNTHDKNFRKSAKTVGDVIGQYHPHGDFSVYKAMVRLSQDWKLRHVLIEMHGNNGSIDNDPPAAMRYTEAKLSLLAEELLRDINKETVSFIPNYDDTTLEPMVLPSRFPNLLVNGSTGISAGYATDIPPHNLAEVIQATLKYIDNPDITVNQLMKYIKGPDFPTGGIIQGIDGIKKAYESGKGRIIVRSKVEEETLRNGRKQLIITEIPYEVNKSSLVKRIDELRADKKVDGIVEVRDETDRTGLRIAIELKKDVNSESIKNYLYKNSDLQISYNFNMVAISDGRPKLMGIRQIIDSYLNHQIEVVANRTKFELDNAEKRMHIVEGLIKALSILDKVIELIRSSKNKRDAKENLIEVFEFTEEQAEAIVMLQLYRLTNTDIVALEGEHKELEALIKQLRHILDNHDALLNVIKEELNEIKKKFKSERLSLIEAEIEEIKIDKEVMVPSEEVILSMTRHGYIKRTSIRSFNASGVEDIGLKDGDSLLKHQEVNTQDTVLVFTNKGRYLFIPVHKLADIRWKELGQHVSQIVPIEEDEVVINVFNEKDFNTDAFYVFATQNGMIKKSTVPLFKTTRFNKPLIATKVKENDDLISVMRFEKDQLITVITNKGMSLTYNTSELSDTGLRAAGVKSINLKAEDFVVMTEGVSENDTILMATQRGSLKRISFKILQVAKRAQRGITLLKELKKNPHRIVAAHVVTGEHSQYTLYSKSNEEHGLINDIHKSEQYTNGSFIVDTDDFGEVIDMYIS
# T3 sequence (P0C1S7 whole entry): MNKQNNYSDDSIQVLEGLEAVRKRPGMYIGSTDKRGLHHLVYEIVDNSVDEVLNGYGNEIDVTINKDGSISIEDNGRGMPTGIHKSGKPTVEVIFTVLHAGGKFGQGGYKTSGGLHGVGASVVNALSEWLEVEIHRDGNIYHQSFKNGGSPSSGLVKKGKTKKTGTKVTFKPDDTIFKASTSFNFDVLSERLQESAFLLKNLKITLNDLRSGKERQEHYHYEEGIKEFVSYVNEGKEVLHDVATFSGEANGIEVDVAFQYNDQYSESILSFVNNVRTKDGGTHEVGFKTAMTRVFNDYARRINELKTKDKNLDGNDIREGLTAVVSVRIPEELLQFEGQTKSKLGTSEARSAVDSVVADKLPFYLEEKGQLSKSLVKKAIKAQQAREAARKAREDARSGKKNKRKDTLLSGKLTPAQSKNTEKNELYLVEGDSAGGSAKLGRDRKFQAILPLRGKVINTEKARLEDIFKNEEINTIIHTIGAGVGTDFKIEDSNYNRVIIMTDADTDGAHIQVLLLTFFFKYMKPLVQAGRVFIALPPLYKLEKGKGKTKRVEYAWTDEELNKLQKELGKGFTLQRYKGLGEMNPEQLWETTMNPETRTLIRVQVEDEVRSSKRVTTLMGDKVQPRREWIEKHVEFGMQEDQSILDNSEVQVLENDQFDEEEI
# Outline: as §3
# [7] = system: Streptococcus pneumoniae R6; assay: In vitro infectivity assay (MIC), Exp. Ex. 2-1; type: cell-based; conditions: Streptococcus pneumoniae, R6; Gram-positive; microdilution, MIC after 24 h; read-out: MIC S. Pneumoniae R6
# [8] = system: Methicillin-resistant S. aureus N315; assay: In vitro infectivity assay (MIC), Exp. Ex. 2-1; type: cell-based, Staphylococcus aureus; conditions: Staphylococcus aureus, MRSA; Gram-positive; microdilution, MIC after 24 h; read-out: MIC MRSA N315
# Outline: as §1
# [9] = system: Methicillin-resistant S. aureus COL; assay: In vitro infectivity assay (MIC), Exp. Ex. 2-1; type: cell-based, Staphylococcus aureus; conditions: Staphylococcus aureus, MRSA; Gram-positive; microdilution, MIC after 24 h
# [10] = system: Methicillin-resistant S. aureus OM584; assay: In vitro infectivity assay (MIC), Exp. Ex. 2-1; type: cell-based, Staphylococcus aureus; conditions: Staphylococcus aureus, MRSA; Gram-positive; microdilution, MIC after 24 h; read-out: MIC MRSA OM584
# Outline: as §1
# [11] = system: Methicillin-resistant S. aureus OM481; assay: In vitro infectivity assay (MIC), Exp. Ex. 2-1; type: cell-based, Staphylococcus aureus; conditions: Staphylococcus aureus, MRSA; Gram-positive; microdilution, MIC after 24 h; read-out: MIC MRSA OM481
# Outline: as §1
# [12] = system: Methicillin sensitive S. aureus 209P; assay: In vitro infectivity assay (MIC), Exp. Ex. 2-1; type: cell-based, Staphylococcus aureus; conditions: Staphylococcus aureus, 209P / MSSA; Gram-positive; microdilution, MIC after 24 h; read-out: MIC MSSA 209P
# Outline: as §1
# MRSA N315 = assay: In vitro infectivity assay (MIC), broth dilution, Exp. Ex. 1-1; type: cell-based, Staphylococcus aureus; conditions: MRSA N315, Mueller-Hinton broth, 35° C., 24 hours
# Protocol: (§4) The antibacterial activities were measured based on broth dilution techniques of international standards (Clinical Laboratory Standards Institute: CLSI). The activities were shown by minimum inhibitory concentrations (MICs) determined by inoculating the above-mentioned strains at a concentration of about 10^5 […] into Mueller-Hinton broth (manufactured by Difco) containing 0.85% NaCl in 96-well microplates and incubating the plates at 35° C. for 24 hours. Measurement was carried out three times.
# (§5) The antibacterial activities of the compounds of the present invention against various strains such as methicillin-resistant Staphylococcus aureus (MRSA), vancomycin intermediate-resistant Staphylococcus aureus (VISA), methicillin-sensitive Staphylococcus aureus (MSSA), and vancomycin-resistant enterococci (VRE) were examined. Of the bacteria used in MIC measurement in this test example, clinical bacteria of MRSA (OM481 strain and OM584 strain) were supplied from Okayama University Hospital (Japan). An MRSA strain N315, a vancomycin intermediate-resistant Staphylococcus aureus (VISA) strain Mu50, and a methicillin-sensitive Staphylococcus aureus (MSSA) strain FDA 209P were used as controls. Vancomycin-resistant enterococcus (VRE) strains NCTC 12201 and FN-1 were supplied from the National Institute of Infectious Disease (Japan).
# VISA Mu50 = assay: as above; type: cell-based, Staphylococcus aureus; conditions: VISA Mu50, Mueller-Hinton broth, 35° C., 24 hours
# Protocol: as §4, §5
# MRSA OM481 = assay: as above; type: cell-based, Staphylococcus aureus; conditions: MRSA OM481, Mueller-Hinton broth, 35° C., 24 hours
# Protocol: as §4, §5
# MRSA OM58 = assay: as above; type: cell-based, Staphylococcus aureus; conditions: MRSA OM58, Mueller-Hinton broth, 35° C., 24 hours
# Protocol: as §4, §5
# MSSA FDA 209P = assay: as above; type: cell-based, Staphylococcus aureus; conditions: MSSA FDA 209P, Mueller-Hinton broth, 35° C., 24 hours
# Protocol: as §4, §5
# [13] = target: T4, DNA gyrase of Escherichia coli (Escherichia coli, UniProt P0AES4+P0AES6); assay: DNA gyrase inhibition (supercoiling assay kit), Exp. Ex. 1-2; type: biochemical; conditions: E. coli DNA gyrase supercoiling, relaxed pBR322, 37° C., 30 minutes
# T4 construct: purchased John Innes Enterprises #K0001
# T4 sequence (P0AES4 whole entry, one chain of several): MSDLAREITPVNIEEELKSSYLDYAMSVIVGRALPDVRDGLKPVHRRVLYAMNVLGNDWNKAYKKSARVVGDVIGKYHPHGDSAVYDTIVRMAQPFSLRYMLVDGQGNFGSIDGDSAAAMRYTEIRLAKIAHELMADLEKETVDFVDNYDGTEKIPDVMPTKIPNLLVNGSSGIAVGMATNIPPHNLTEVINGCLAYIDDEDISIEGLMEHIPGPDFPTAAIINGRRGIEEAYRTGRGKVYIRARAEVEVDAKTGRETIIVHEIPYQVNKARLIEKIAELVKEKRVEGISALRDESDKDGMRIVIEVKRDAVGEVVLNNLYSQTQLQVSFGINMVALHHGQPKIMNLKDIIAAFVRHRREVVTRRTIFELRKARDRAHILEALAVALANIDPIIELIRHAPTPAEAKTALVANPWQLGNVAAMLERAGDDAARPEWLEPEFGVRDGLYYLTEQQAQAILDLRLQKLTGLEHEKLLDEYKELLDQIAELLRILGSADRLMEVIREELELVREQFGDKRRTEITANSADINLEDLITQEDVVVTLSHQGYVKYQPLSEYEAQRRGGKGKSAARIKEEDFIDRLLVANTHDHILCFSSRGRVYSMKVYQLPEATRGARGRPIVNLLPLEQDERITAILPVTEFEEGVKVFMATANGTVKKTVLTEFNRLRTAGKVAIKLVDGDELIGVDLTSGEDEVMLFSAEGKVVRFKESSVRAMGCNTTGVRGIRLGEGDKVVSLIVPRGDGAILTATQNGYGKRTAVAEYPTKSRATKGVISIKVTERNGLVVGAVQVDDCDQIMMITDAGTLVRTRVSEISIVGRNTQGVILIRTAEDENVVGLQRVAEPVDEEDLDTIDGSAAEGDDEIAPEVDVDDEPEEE
# Protocol: As a kit for measurement of DNA gyrase of Escherichia coli, a product purchased from John Innes Enterprises (Gyrase Supercoiling assay kit #K0001) was used. Relaxed DNA was modified with gyrase into supercoiled DNA, and reaction products were separated by electrophoresis depending on the sizes of the molecular weights to examine anti-gyrase effects (IC50). One unit (1 U) of DNA gyrase and […] of relaxed pBR322 DNA were added to […] of the reaction solution, and the mixture was allowed to react at 37° C. for 30 minutes in the presence of 35 mM Tris-HCl (pH 7.5), 24 mM KCl, 4 mM MgCl2, 2 mM DTT, 1.8 mM spermidine, 1 mM ATP, 6.5% (w/v) glycerol, and 0.1 mg/ml BSA. The reactions were stopped using […] of a reaction stop solution (40% sucrose, 100 mM Tris-HCl (pH 7.5), 1 mM EDTA, 0.5 mg/ml bromophenol blue).
# VRE NCTC12201 = assay: In vitro infectivity assay (MIC), broth dilution, Exp. Ex. 1-1; type: cell-based, enterococci; conditions: VRE NCTC12201, Mueller-Hinton broth, 35° C., 24 hours
# Protocol: as §4, §5
# VRE FN-1 = assay: as above; type: cell-based, enterococci; conditions: VRE FN-1, Mueller-Hinton broth, 35° C., 24 hours
# Protocol: as §4, §5
# T1 sequence (P0AES4 whole entry, one chain of several): as above
compound,measurement,setting,value
"CCOc1ccc(C(=O)OC[C@H]2O[C@@H](Oc3c(-c4ccc(O)c(O)c4)oc4cc(O)cc(O)c4c3=O)[C@H](OC(=O)c3ccc(OCC)cc3)[C@@H](O)[C@H]2O)cc1 [Compound 14a, 2-(3″,4″-Dihydroxyphenyl)-5,7-dihydroxy-3-β-D-[2″,6″-di-O-(4-ethoxybenzoyl)]galactosyl-4H-chromen-4-one]",IC50,E. coli DNA gyrase,430 nM
same,MIC,[1],4 µg/mL
same,MIC,[2],8 µg/mL
same,MIC,[3],8 µg/mL
same,MIC,Escherichia coli K-12,> 128 µg/mL
same,MIC,[4],> 128 µg/mL
same,IC50,[5],7.33 µM
same,IC50,[6],1780 nM
same,MIC,[7],4 µg/mL
same,melting point,,108 to 110 °C
same,MIC,[8],8 µg/mL
same,MIC,[9],16 µg/mL
same,MIC,[10],4 µg/mL
same,MIC,[11],4 µg/mL
same,MIC,[12],4 µg/mL
"O=c1c([C@@H]2O[C@H](CO)[C@H](O)[C@H](O)[C@H]2O)c(-c2ccc(O)c(O)c2)oc2cc([C@@H]3O[C@H](CO)[C@H](O)[C@H](O)[C@H]3O)cc(O)c12 [Compound 6, 2-(3′,4′-Dihydroxyphenyl)-5-hydroxy-3,7-di-β-D-galactosyl-4H-chromen-4-one]",melting point,,215 to 217 °C
"Cc1ccc(CC(=O)OC[C@H]2O[C@@H](Oc3c(-c4ccc(O)c(O)c4)oc4cc(O)cc(O)c4c3=O)[C@H](OC(=O)Cc3ccc(C)cc3)[C@@H](O)[C@H]2O)cc1 [Compound 14d, 2-(3′,4′-Dihydroxyphenyl)-5,7-dihydroxy-3-β-D-[2″,6″-di-O-(4-methylphenylacetyl)]galactosyl-4H-chromen-4-one]",IC50,E. coli DNA gyrase,2210 nM
same,MIC,[1],4 µg/mL
same,MIC,[2],4 µg/mL
same,MIC,[3],8 µg/mL
same,MIC,Escherichia coli K-12,> 128 µg/mL
same,MIC,[4],> 128 µg/mL
same,IC50,[5],8.52 µM
same,IC50,[6],2690 nM
same,MIC,[7],2 µg/mL
same,melting point,,125 to 127 °C
same,MIC,[8],8 µg/mL
same,MIC,[9],16 µg/mL
same,MIC,[10],2 µg/mL
same,MIC,[11],2 µg/mL
same,MIC,[12],4 µg/mL
"CCOc1ccc(CCC(=O)O[C@H]2[C@H](Oc3c(-c4ccc(O)c(O)c4)oc4cc(O)cc(O)c4c3=O)O[C@H](CO)[C@@H](O)[C@@H]2OC(=O)CCc2ccc(OCC)cc2)cc1 [Compound 15b, 2-(3′,4′-Dihydroxy)-5,7-dihydroxy-3-β-D-(2″,3″-di-p-ethoxyphenylethylcarboxy)glucosyl-4H-chromen-4-one]",MIC MRSA N315,MRSA N315,2 µg/mL
same,MIC VISA Mu50,VISA Mu50,4 µg/mL
same,MIC MRSA OM481,MRSA OM481,4 µg/mL
same,MIC MRSA OM58,MRSA OM58,8 µg/mL
same,MIC MSS 209P,MSSA FDA 209P,2 µg/mL
same,Gyrase inhibitory activity IC50,[13],9.23 µg/mL
same,MIC VRE NCTC 12201,VRE NCTC12201,8 µg/mL
same,MIC VRE FN-1,VRE FN-1,8 µg/mL
"Cc1ccc(CCC(=O)c2cc(O)c3c(=O)c(C(=O)CCc4ccc(C)cc4)c(-c4ccc(O)c(O)c4)oc3c2)cc1 [Compound 2a, 2-(3′,4′-Dihydroxyphenyl)-5-hydroxy-3,7-di-(4-methylphenylpropanoyl)-4H-chromen-4-one]",melting point,,105 to 107 °C
"O=c1c(O[C@@H]2O[C@H](CO)[C@@H](O)[C@H](O)[C@H]2O)c(-c2ccc(O)c(O)c2)oc2cc(O)cc(O)c12 [Compound 17, 2-(3′4′-Dihydroxy)-5,7-dihydroxy-3-β-D-glucosyl-4H-chromen-4-one]",MIC,"MRSA N315; Staphylococcus aureus, read-out: MIC MRSA N315",> 128 µg/mL
same,MIC,"VISA Mu50; Staphylococcus aureus, read-out: MIC VISA Mu50",> 128 µg/mL
same,MIC,"MRSA OM481; Staphylococcus aureus, read-out: MIC MRSA OM481",> 128 µg/mL
same,MIC,"MRSA OM58; Staphylococcus aureus, read-out: MIC MRSA OM58",> 128 µg/mL
same,MIC,"MSSA FDA 209P; Staphylococcus aureus, read-out: MIC MSS 209P",> 128 µg/mL
same,IC50,[13]; read-out: Gyrase inhibitory activity IC50 (converted),> 25.8 µM
same,MIC,"VRE NCTC12201; Enterococcus, read-out: MIC VRE NCTC12201",> 128 µg/mL
same,MIC,"VRE FN-1; Enterococcus, read-out: MIC VRE FN-1",> 128 µg/mL
"O=C(CCc1ccc(F)cc1)c1cc(O)c2c(=O)c(C(=O)CCc3ccc(F)cc3)c(-c3ccc(O)c(O)c3)oc2c1 [Compound 2b, 2-(3′,4′-Dihydroxyphenyl)-5-hydroxy-3,7-di-(4-fluorophenylpropanoyl)-4H-chromen-4-one]",melting point,,119 to 121 °C
